The text below walks through data of article PMC3146558 (Cellular and molecular neurobiology, 2011).

The test system of test [1] is morphine induced cAMP overshoot. The test can be described thus: Inhibition of morphine-induced cAMP overshoot, qHTS of LOPAC library. Format: cell-based. In general terms: In qHTS, concentration-response curves come from the screen itself.
The next test has as its system HEK-MOR cells. Nature of the test: Assay performance in 1536-well plate format. Format: cell-based. The following applies: mean ± SD from 288 wells.

The structures appear in SMILES notation. Where a name gives a salt, the structure may show the parent alone. Read-outs that look alike come from different tables or passages of the source.

For `C=C1C(=O)O[C@H]2[C@H]1CC/C(C)=C/CC[C@@]1(C)O[C@@H]21` [Parthenolide], in test [1] (18 h, read-out: Potency), the IC50 was 16400 nM.

As to `Oc1ccc2c3c1O[C@H]1c4oc5ccccc5c4C[C@@]4(O)[C@@H](C2)N(CC2CC2)CC[C@]314` [Naltriben methanesulfonate], the IC50 in test [1] (18 h, read-out: Potency) is 2310 nM.

For `C=CCN1CC[C@]23c4c5ccc(O)c4O[C@H]2/C(=N/NC(=O)c2ccccc2)CC[C@@]3(O)[C@H]1C5` [Naloxone benzoylhydrazone], in test [1] (18 h, read-out: Potency), the IC50 came out at 410 nM.

`CN1CC[C@]23c4c5ccc(O)c4O[C@H]2[C@@H](O)C=C[C@H]3[C@H]1C5` [Morphine, morphine sulfate pentahydrate]: the “ratio (665nm/620nm), morphine treatment” value is on record as 1.63 ± 0.13 in the test on HEK-MOR cells (NKH 477 10 nM), 1.08 ± 0.05 in the test with HEK-MOR cells (NKH 477 25 nM) and 0.88 ± 0.04 in the test on HEK-MOR cells (NKH 477 50 nM).

For `Oc1ccc2c3c1O[C@H]1c4[nH]c5ccccc5c4C[C@@]4(O)[C@@H](C2)N(CC2CC2)CC[C@]314` [Naltrindole hydrochloride], the IC50 was 820 nM in test [1] (18 h, read-out: Potency) and 810 nM in test [1] (read-out: IC50).

For the molecule `CCCN(CCC)CCc1cccc2c1CC(=O)N2` [Ropinirole hydrochloride], the IC50 in test [1] (18 h, read-out: Potency) amounted to 18400 nM.

With `CCC(=O)c1ccc2c(c1)N(CCCN(C)C)c1ccccc1S2` [Propionylpromazine hydrochloride], the IC50 in test [1] (18 h, read-out: Potency) was 16400 nM.

On to `CC1(C(=O)O)C2CCC(O2)C1(C)C(=O)O` (centres unmarked) [Cantharidic Acid], for which the IC50 in test [1] (18 h, read-out: Potency) amounted to 14600 nM.

With `O=C1CC[C@@]2(O)[C@H]3Cc4ccc(O)c5c4[C@@]2(CCN3CC2CC2)[C@H]1O5` [Naltrexone hydrochloride], the IC50 worked out at 120 nM in test [1] (18 h, read-out: Potency) and 110 nM in test [1] (read-out: IC50).

`C=CCN1CC[C@]23CCCC[C@H]2[C@H]1Cc1ccc(O)cc13` [Levallorphan tartrate]: the IC50 in test [1] (18 h, read-out: Potency) stood at 330 nM; in test [1] (read-out: IC50), 320 nM.

For `C[C@@]12C(=O)OC(=O)[C@]1(C)[C@H]1CC[C@@H]2O1` [Cantharidin], the IC50 in test [1] (18 h, read-out: Potency) is 13000 nM.

With `CCCCCCCCCCCCCCCCCC(=O)NCC(COP(=O)([O-])OCC[N+](C)(C)C)OCC` (racemic) [rac-2-Ethoxy-3-octadecanamido-1-propylphosphocholine], the IC50 in test [1] (18 h, read-out: Potency) amounted to 18400 nM.
